Measured values from patent US20040039022A1, “NMDA receptor agonist pharmaceutical compositions” (Pfizer Inc., priority 2000, published 2004).

Experiments:
Format in all cases: physicochemical
[1] = pH of buffered 10 mgA/ml formulations of the Compound at 70° C.
Text: Table 2 exemplifies the use of various buffers to stabilize the pH of formulations containing 10 mgA/ml of the Compound. [table]

[2] = pH shift of aqueous formulations (water only; terminal sterilization of lactate buffered formulation)
Text: Aqueous solutions of the Compound are susceptible to pH shift. […] When the Compound is formulated with only water, the pH of the formulation increases above 5. This pH shift results in conditions favorable to the oxidative degradation reaction, thus accelerating the degradation of the aqueous formulation. The increase in pH also decreases the solubility of the compound, thereby increasing the possibility of precipitation out of solution. Vials are preferably sterilized by terminal sterilization methods employing an autoclave. Preferably, sterilization is for 8 minutes at 121° C. Sterilization may cause a slight shift of pH. In the lactate buffered formulation, pH shifted slightly down. In order to achieve a mid-point in the preferred pH range, the initial pH is preferably set to 4.5. The terminal sterilization cycle reduces the pH to about 4.2. The pH of the initial formulation is set at pH 4.5 to accommodate the slight pH down-shifting upon terminal sterilization. […] Sodium hydroxide and hydrochloric acid are used as needed to adjust the solution to the desired pH.

[3] = Maximum solubility of the Compound; conditions: at 5° C.
Experimental: A preferred presentation of the composition aspects of the invention comprises the Compound at a concentration of 10 mgA/mL. This concentration is near the maximum solubility of the Compound (about 12 mgA/mL at 5° C.). The preferred solution of the composition is 10 mM lactate buffer. However, those skilled in the art will appreciate that buffer solutions of other anions may be used, including, but not limited to, buffer solutions of the anions acetate, citrate, tartrate and formate.

C[C@@H]([C@@H](O)c1ccc(O)cc1)N1CCC(O)(c2ccccc2)CC1 [Compound, (1S,2S)-1-(4-Hydroxyphenyl)-2-(4-hydroxy4-phenylpiperidin-1-yl)-1-propanol]
pH at 70° C. ([1]; 3 mM lactate, 2 days): 4.21 | pH at 70° C. ([1]; 3 mM lactate, 7 days): 4.20 | pH at 70° C. ([1]; 3 mM lactate, 21 days): 4.14 | pH at 70° C. ([1]; 3 mM lactate, Initial (post-TS)): 4.24 | pH at 70° C. ([1]; 10 mM acetate, 4 days): 4.14 | pH at 70° C. ([1]; 10 mM acetate, 7 days): 4.14 | pH at 70° C. ([1]; 10 mM acetate, 21 days): 4.17 | pH at 70° C. ([1]; 10 mM acetate, Initial (post-TS)): 4.16 | pH at 70° C. ([1]; 10 mM benzoate, 4 days): 4.16 | pH at 70° C. ([1]; 10 mM benzoate, 7 days): 4.20 | pH at 70° C. ([1]; 10 mM benzoate, Initial (post-TS)): 4.21 | pH at 70° C. ([1]; 10 mM citrate, 2 days): 4.16 | pH at 70° C. ([1]; 10 mM citrate, 7 days): 4.17 | pH at 70° C. ([1]; 10 mM citrate, 21 days): 4.11 | pH at 70° C. ([1]; 10 mM citrate, Initial (post-TS)): 4.16 | pH at 70° C. ([1]; 10 mM formate, 2 days): 4.18 | pH at 70° C. ([1]; 10 mM formate, 7 days): 4.16 | pH at 70° C. ([1]; 10 mM formate, 21 days): 4.13 | pH at 70° C. ([1]; 10 mM formate, Initial (post-TS)): 4.17 | pH at 70° C. ([1]; 10 mM tartrate, 2 days): 4.17 | pH at 70° C. ([1]; 10 mM tartrate, 7 days): 4.17 | pH at 70° C. ([1]; 10 mM tartrate, 21 days): 4.07 | pH at 70° C. ([1]; 10 mM tartrate, Initial (post-TS)): 4.15 | pH of the formulation ([2]; Compound formulated with only water): above 5 | pH after terminal sterilization cycle ([2]; lactate buffered formulation, initial pH 4.5, autoclave 8 minutes at 121° C.): about 4.2 | maximum solubility [3]: about 12 mgA/mL
